Measured values taken from patent US20250179103A1, “6-OXODECAHYDROPYRROLO[1,2-A][1,5]DIAZOCINE AND 6-OXODECAHYDRO-4H-PYRROLO[2,1-D][1,5]THIAZOCINE DERIVATIVES AS STAT3 AND STAT6 MODULATORS FOR THE TREATMENT OF CANCER AND INFLAMMATORY CONDITIONS” (Recludix Pharma, Inc., priority 2022, published 2025).

Columns and labels:
[1] = molecular target: T1, Recombinant STAT3 protein (STAT3(G127-I722)) (Homo sapiens, UniProt P40763); assay: STAT3 Fluorescence Polarization (FP) Assay; assay type: binding; settings: STAT3(G127-I722) 25 nM, probe 5-FAM-GpYLPQTV-NH2 2 nM, 45-minute incubation
T1 construct: Recombinant STAT3 protein (STAT3(G127-I722))
T1 sequence (P40763 127-722): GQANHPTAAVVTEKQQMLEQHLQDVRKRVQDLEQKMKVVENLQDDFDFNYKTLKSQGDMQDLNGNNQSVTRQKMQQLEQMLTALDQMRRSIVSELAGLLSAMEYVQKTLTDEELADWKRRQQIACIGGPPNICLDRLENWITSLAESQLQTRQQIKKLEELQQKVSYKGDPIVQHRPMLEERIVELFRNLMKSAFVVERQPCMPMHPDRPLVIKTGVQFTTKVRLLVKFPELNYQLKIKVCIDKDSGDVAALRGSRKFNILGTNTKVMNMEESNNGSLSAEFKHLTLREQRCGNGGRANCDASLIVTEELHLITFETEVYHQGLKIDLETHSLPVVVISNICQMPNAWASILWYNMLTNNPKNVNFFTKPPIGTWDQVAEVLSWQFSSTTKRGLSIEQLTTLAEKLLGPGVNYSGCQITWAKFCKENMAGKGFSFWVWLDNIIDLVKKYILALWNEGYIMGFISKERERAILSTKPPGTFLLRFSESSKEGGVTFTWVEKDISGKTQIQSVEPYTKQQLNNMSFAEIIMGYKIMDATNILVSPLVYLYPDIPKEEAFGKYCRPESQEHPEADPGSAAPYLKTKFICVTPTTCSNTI
Procedure: STAT3 Fluorescence Polarization (FP) Assay
An FP assay was developed to determine IC50 values for test substances. Recombinant STAT3 protein (STAT3(G127-I722)) at 25 nM was combined with a fluorescently labeled, phosphotyrosine peptide probe (5-FAM-GpYLPQTV-NH2) at 2 nM in FP buffer (10 mM HEPES pH 7.4, 50 mM NaCl, 1 mM EDTA, 0.05% Tween 20.2 mM DTT). 50 μL of STAT3-probe mixture was added to serial diluted compounds in black, 96-well plates (Greiner BioOne 655076) to a final concentration of 1% DMSO. Reaction components were mixed, and FP was measured after 45-minute incubation at room temperature using a Tecan Spark multimode plate reader. FP signal (mP) was plotted against the log concentration of the test substances and IC50 values were calculated by nonlinear regression analysis using GraphPad Prism software. For STAT3 FP assay, A=≤100 nM; B=>100-1000 nM; C=>1-10 μM; and D=>10 μM.

[2] = molecular target: T2, Recombinant STAT6 protein (STAT6(W123-T658)) (Homo sapiens, UniProt P42226); assay: STAT6 Fluorescence Polarization (FP) Assay; assay type: binding; settings: STAT6(W123-T658) 250 nM, probe 5-FAM-ApYKPFQDLI-NH2 2 nM, 45-minute incubation
T2 construct: Recombinant STAT6 protein (STAT6(W123-T658))
T2 sequence (P42226 123-658): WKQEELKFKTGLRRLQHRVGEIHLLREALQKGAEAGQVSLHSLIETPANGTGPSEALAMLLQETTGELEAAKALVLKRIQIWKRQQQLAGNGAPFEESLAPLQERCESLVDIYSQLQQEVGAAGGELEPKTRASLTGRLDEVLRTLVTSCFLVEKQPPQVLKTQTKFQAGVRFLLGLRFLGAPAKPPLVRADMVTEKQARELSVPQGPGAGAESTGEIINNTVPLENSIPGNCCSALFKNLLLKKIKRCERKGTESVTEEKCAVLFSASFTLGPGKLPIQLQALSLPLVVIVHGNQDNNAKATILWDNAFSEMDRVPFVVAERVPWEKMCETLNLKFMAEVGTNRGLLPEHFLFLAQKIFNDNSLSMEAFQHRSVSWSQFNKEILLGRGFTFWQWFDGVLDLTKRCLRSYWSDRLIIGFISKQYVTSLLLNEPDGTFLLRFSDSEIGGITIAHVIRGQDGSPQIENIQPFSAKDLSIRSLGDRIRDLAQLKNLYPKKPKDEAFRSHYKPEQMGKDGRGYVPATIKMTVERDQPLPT
Procedure: STAT6 Fluorescence Polarization (FP) Assay
An FP assay was developed to determine IC50 values for test substances. Recombinant STAT6 protein (STAT6(W123-T658)) at 250 nM was combined with a fluorescently labeled, phosphotyrosine peptide probe (5-FAM-ApYKPFQDLI-NH2) at 2 nM in FP buffer (10 mM HEPES pH 7.4, 50 mM NaCl, 1 mM EDTA, 0.05% Tween 20.2 mM DTT). 50 μL of STAT6-probe mixture was added to serial diluted compounds in black, 96-well plates (Greiner BioOne 655076) to a final concentration of 1% DMSO. Reaction components were mixed, and FP was measured after 45-minute incubation at room temperature using a Tecan Spark multimode plate reader. FP signal (mP) was plotted against the log concentration of the test substances and IC50 values were calculated by nonlinear regression analysis using GraphPad Prism software. For STAT6 FP assay, A=≤300 nM; B=>300-3000 nM; C=>3-30 μM; and D=>30 μM.

IC50 [1] [µM] | IC50 [2] [µM] | SMILES
1 to 10 | 0.3 to 3 | CC(=O)N1CC[C@H]2CC[C@@H](C(=O)N3CC[C@@H](c4ccccc4)[C@H](C#N)C3)N2C(=O)[C@@H](NC(=O)c2cc3cc(C(F)(F)P(=O)(O)O)ccc3s2)C1 (relative stereo) [Compound 154, ((2-(((5S,8S,10aR)-3-acetyl-8-((rel-trans)-3-cyano-4-phenylpiperidine-1-carbonyl)-6-oxodecahydropyrrolo[1,2-a][1,5]diazocin-5-yl)carbamoyl)benzo[b]thiophen-5-yl)difluoromethyl)phosphonic acid]
1 to 10 | ≤ 0.3 | CC(=O)N1CC[C@H]2CC[C@@H](C(=O)N3C[C@H](c4ccccc4)[C@@H](C#N)C3)N2C(=O)[C@@H](NC(=O)c2ccc3ccc(C(F)(F)P(=O)(O)O)cc3c2)C1 (relative stereo) [Compound 203, ((7-(((5S,8S,10aR)-3-acetyl-8-(rel-trans)-3-cyano-4-phenylpyrrolidine-1-carbonyl)-6-oxodecahydropyrrolo[1,2-a][1,5]diazocin-5-yl)carbamoyl)naphthalen-2-yl)difluoromethyl)phosphonic acid]
0.1 to 1 | 0.3 to 3 | CC(=O)N1CC[C@H]2CC[C@@H](C(=O)N3C[C@@H](C#N)[C@@H]3c3ccccc3)N2C(=O)[C@@H](NC(=O)c2cc3cc(C(F)(F)P(=O)(O)O)ccc3s2)C1 (relative stereo) [Compound 204, ((2-(((5S,8S,10aR)-3-acetyl-8-((rel-trans)-3-cyano-2-phenylazetidine-1-carbonyl)-6-oxodecahydropyrrolo[1,2-a][1,5]diazocin-5-yl)carbamoyl)benzo[b]thiophen-5-yl)difluoromethyl)phosphonic acid]
1 to 10 | 0.3 to 3 | CC(=O)N1CC[C@H]2CC[C@@H](C(=O)N3C[C@H](C#N)C[C@@H]3c3ccccc3)N2C(=O)[C@@H](NC(=O)c2cc3cc(C(F)(F)P(=O)(O)O)ccc3s2)C1 (relative stereo) [Compound 205, ((2-(((5S,8S,10aR)-3-acetyl-8-((rel-cis)-4-cyano-2-phenylpyrrolidine-1-carbonyl)-6-oxodecahydropyrrolo[1,2-a][1,5]diazocin-5-yl)carbamoyl)benzo[b]thiophen-5-yl)difluoromethyl)phosphonic acid]
1 to 10 | 0.3 to 3 | CC(=O)N1CC[C@H]2CC[C@@H](C(=O)N3C[C@H](C#N)C[C@H]3c3ccccc3)N2C(=O)[C@@H](NC(=O)c2cc3cc(C(F)(F)P(=O)(O)O)ccc3s2)C1 (relative stereo) [Compound 206, ((2-(((5S,8S,10aR)-3-acetyl-8-((rel-trans)-4-cyano-2-phenylpyrrolidine-1-carbonyl)-6-oxodecahydropyrrolo[1,2-a][1,5]diazocin-5-yl)carbamoyl)benzo[b]thiophen-5-yl)difluoromethyl)phosphonic acid]
1 to 10 | 0.3 to 3 | CC(=O)N1CC[C@H]2CC[C@@H](C(=O)N3CC[C@H](C#N)[C@H]3c3ccccc3)N2C(=O)[C@@H](NC(=O)c2cc3cc(C(F)(F)P(=O)(O)O)ccc3s2)C1 (relative stereo) [Compound 207, ((2-(((5S,8S,10aR)-3-acetyl-8-((rel-trans)-3-cyano-2-phenylpyrrolidine-1-carbonyl)-6-oxodecahydropyrrolo[1,2-a][1,5]diazocin-5-yl)carbamoyl)benzo[b]thiophen-5-yl)difluoromethyl)phosphonic acid]
1 to 10 | 0.3 to 3 | N#C[C@H]1CN(C(=O)[C@@H]2CC[C@@H]3CN(C(c4ccccc4)c4ccccc4)CC[C@H](NC(=O)c4ccc5ccc(C(F)(F)P(=O)(O)O)cc5c4)C(=O)N32)C[C@@H]1c1ccccc1 (relative stereo) [Compound 209, ((7-(((5S,8S,10aR)-2-benzhydryl-8-((rel-trans)-3-cyano-4-phenylpyrrolidine-1-carbonyl)-6-oxodecahydropyrrolo[1,2-a][1,4]diazocin-5-yl)carbamoyl)naphthalen-2-yl)difluoromethyl)phosphonic acid]

Further lines, the compound ahead of its results:

SMILES | IC50 [1] [µM] | IC50 [2] [µM]
COc1cc(C2CN(C(=O)[C@@H]3CC[C@@H]4CCN(C(C)=O)C[C@H](NC(=O)c5cc6cc(C(F)(F)P(=O)(O)O)ccc6s5)C(=O)N43)C[C@@H]2C#N)ccn1 (relative stereo) [Compound 148, ((2-(((5S,8S,10aR)-3-acetyl-8-((rel-trans)-3-cyano-4-(2-methoxypyridin-4-yl)pyrrolidine-1-carbonyl)-6-oxodecahydropyrrolo[1,2-a][1,5]diazocin-5-yl)carbamoyl)benzo[b]thiophen-5-yl)difluoromethyl)phosphonic acid] | 1 to 10 | 0.3 to 3
COc1cccc([C@@H]2CN(C(=O)[C@@H]3CC[C@@H]4CCN(C(C)=O)C[C@H](NC(=O)c5cc6cc(C(F)(F)P(=O)(O)O)ccc6s5)C(=O)N43)C[C@H]2C#N)c1 (relative stereo) [Compound 149, ((2-(((5S,8S,10aR)-3-acetyl-8-((rel-trans)-3-cyano-4-(3-methoxyphenyl)pyrrolidine-1-carbonyl)-6-oxodecahydropyrrolo[1,2-a][1,5]diazocin-5-yl)carbamoyl)benzo[b]thiophen-5-yl)difluoromethyl)phosphonic acid] | 1 to 10 | ≤ 0.3
CC(=O)N1CC[C@H]2CC[C@@H](C(=O)N3C[C@@H](C#N)[C@H](c4cccnc4)C3)N2C(=O)[C@@H](NC(=O)c2cc3cc(C(F)(F)P(=O)(O)O)ccc3s2)C1 (relative stereo) [Compound 150, ((2-(((5S,8S,10aR)-3-acetyl-8-((rel-trans)-3-cyano-4-(pyridin-3-yl)pyrrolidine-1-carbonyl)-6-oxodecahydropyrrolo[1,2-a][1,5]diazocin-5-yl)carbamoyl)benzo[b]thiophen-5-yl)difluoromethyl)phosphonic acid] | 0.1 to 1 | ≤ 0.3
CC(=O)N1CC[C@H]2CC[C@@H](C(=O)N3C[C@@H](C#N)[C@H](C4CCCCC4)C3)N2C(=O)[C@@H](NC(=O)c2cc3cc(C(F)(F)P(=O)(O)O)ccc3s2)C1 (relative stereo) [Compound 151, ((2-(((5S,8S,10aR)-3-acetyl-8-((rel-trans)-3-cyano-4-cyclohexylpyrrolidine-1-carbonyl)-6-oxodecahydropyrrolo[1,2-a][1,5]diazocin-5-yl)carbamoyl)benzo[b]thiophen-5-yl)difluoromethyl)phosphonic acid] | 1 to 10 | 0.3 to 3
CC(=O)N1CC[C@H]2CC[C@@H](C(=O)N3C[C@@H](C#N)[C@](C)(c4ccccc4)C3)N2C(=O)[C@@H](NC(=O)c2cc3cc(C(F)(F)P(=O)(O)O)ccc3s2)C1 (relative stereo) [Compound 152, ((2-(((5S,8S,10aR)-3-acetyl-8-((rel-trans)-4-cyano-3-methyl-3-phenylpyrrolidine-1-carbonyl)-6-oxodecahydropyrrolo[1,2-a][1,5]diazocin-5-yl)carbamoyl)benzo[b]thiophen-5-yl)difluoromethyl)phosphonic acid] | 1 to 10 | ≤ 0.3
CC(=O)N1CC[C@H]2CC[C@@H](C(=O)N3C[C@@H](C#N)C[C@H](c4ccccc4)C3)N2C(=O)[C@@H](NC(=O)c2cc3cc(C(F)(F)P(=O)(O)O)ccc3s2)C1 (relative stereo) [Compound 153, ((2-(((5S,8S,10aR)-3-acetyl-8-((rel-trans)-3-cyano-5-phenylpiperidine-1-carbonyl)-6-oxodecahydropyrrolo[1,2-a][1,5]diazocin-5-yl)carbamoyl)benzo[b]thiophen-5-yl)difluoromethyl)phosphonic acid] | 1 to 10 | 0.3 to 3
